Data reported in publication PMC10916382, “Repurposing screen identifies novel candidates for broad-spectrum coronavirus antivirals and druggable host targets” (Antimicrobial Agents and Chemotherapy, 2024).
Structures can show the parent of a compound that is named as a salt. Where two headings read alike, the source gives them in different places. Where a SMILES comes first, the peptide text is derived from it. The star is where a group is joined. Cbz = O=C(OCc1ccccc1)*; CHN2 = [N-]=[N+]=C*

Columns and labels:
HCoV-229E = assay: microbe, parasite or virus in culture; assay type: cell-based, Homo sapiens sapiens
[1] = Huh-7.5 cells, dose series, maximum tested dose 5 µM
[2] = Anti-SARS-CoV-2 screening on Calu-3 cells: viability [% of control], Calu-3 cells
[3] = Calu-3 cells, immunofluorescence imaging
[4] = HCoV 229E infection, dose series, max. dose 5 µM, read-out: IC50

| SMILES | CC50 (µM) (Huh-7.5/F-Luc cells; [1]) | Anti-SARS-CoV-2 screening on Calu-3 cells: intracellular SARS-CoV-2 infection measured via immunofluorescence imaging [% of control] (SARS-CoV-2; [3]) | % cell viability at max. dose [5 µM] (Huh-7.5/F-Luc cells; at max. dose 5 µM) [%] | IC50 (HCoV-229E; [4]) [nM] | Anti-SARS-CoV-2 screening on Calu-3 cells: viability [% of control] (SARS-CoV-2; Calu-3 cells) | other results |
| --- | --- | --- | --- | --- | --- | --- |
| CC/C(=C(\c1ccccc1)c1ccc(OCCN(C)C)cc1)c1ccccc1 [Tamoxifen citrate] | – | – | – | – | – | CC50 (µM) (Huh-7.5/F-Luc cells): greater than maximum tested dose; viability at 48 h, 5 µM (in vitro): 102%; Anti-SARS-CoV-2 screening on Calu-3 cells: intracellular SARS-CoV-2 infection measured via immunofluorescence imaging [% of control] (SARS-CoV-2): 106.52 % of control |
| COc1cccc2c1C(=O)c1c(O)c3c(c(O)c1C2=O)C[C@@](O)(C(=O)CO)C[C@@H]3O[C@H]1C[C@H](N)[C@H](O[C@@H]2CCCCO2)[C@H](C)O1 [pirarubicin] | greater than maximum tested dose | 112.83 % of control | – | – | – | viability (in vitro; [2]): 56.9%; IC50 (HCoV-229E; Human coronavirus 229E, Huh7.5): 890 nM |
| CN1CCC(CNc2ccc3ncc(-c4cccc(OC(F)(F)F)c4)n3n2)CC1 [SGI-1776] | greater than maximum tested dose | 100.18 % of control | – | – | – | viability (in vitro; [2]): 94.5%; IC50 (HCoV-229E; Human coronavirus 229E, Huh7.5): 560 nM |
| CC(C)(C)NC[C@H](O)COc1ccccc1C1CCCC1 [penbutolol] | greater than maximum tested dose | 102.38 % of control | – | – | – | viability at 48 h, 5 µM (in vitro): 101%; IC50 (HCoV-229E; Human coronavirus 229E, Huh7.5): 1050 nM |
| CC/C(=C(\c1ccc(O)cc1)c1ccc(OCCN(C)C)cc1)c1ccccc1 [Afimoxifene] | greater than maximum tested dose | 100.60 % of control | – | – | – | viability (in vitro; [2]): 93.4%; IC50 (HCoV-229E; Human coronavirus 229E, Huh7.5): 630 nM |
| CN[C@H]1CC[C@@H](c2ccc(Cl)c(Cl)c2)c2ccccc21 [sertraline hydrochloride] | – | – | – | – | – | CC50 (µM) (Huh-7.5/F-Luc cells): greater than maximum tested dose; viability at 48 h, 5 µM (in vitro): 101%; Anti-SARS-CoV-2 screening on Calu-3 cells: intracellular SARS-CoV-2 infection measured via immunofluorescence imaging [% of control] (SARS-CoV-2): 122.16 % of control |
| CNC1CC(c2ccc(Cl)c(Cl)c2)c2ccccc21 (stereo not shown) [Indatraline] | greater than maximum tested dose | 97.64 % of control | – | – | – | viability (in vitro; [2]): 88.1%; IC50 (HCoV-229E; Human coronavirus 229E, Huh7.5, read-out: IC50): 830 nM |
| CC(C)(C)c1cnc(CSc2cnc(NC(=O)C3CCNCC3)s2)o1 [SNS-032] | greater than maximum tested dose | 132.10 % of control | – | – | – | viability (in vitro; [2]): 39.8%; IC50 (HCoV-229E; Human coronavirus 229E, Huh7.5): 210 nM |
| CN(C)CCOc1ccc(/C(=C(/CCCl)c2ccccc2)c2ccccc2)cc1 [TOREMIFENE CITRATE] | greater than maximum tested dose | 114.97 % of control | – | – | – | viability (in vitro): 95.3%; IC50 (HCoV-229E; Human coronavirus 229E, Huh7.5): 1020 nM |
| CNCc1ccc(OC)c([C@]2(N3CCC[C@H]3c3ncco3)C(=O)N(S(=O)(=O)c3ccc(OC)cc3)c3ccc(Cl)cc32)c1 [RFM-011-200-5] | greater than maximum tested dose | 106.10 % of control | – | – | – | viability (in vitro; [2]): 117%; IC50 (HCoV-229E; Human coronavirus 229E, Huh7.5): 700 nM |
| CCN(CC)CCOc1ccc(/C(=C(/Cl)c2ccccc2)c2ccccc2)cc1 [enclomiphene citrate] | – | – | – | – | – | CC50 (µM) (Huh-7.5/F-Luc cells): greater than maximum tested dose; viability at 48 h, 5 µM (in vitro): 102%; Anti-SARS-CoV-2 screening on Calu-3 cells: intracellular SARS-CoV-2 infection measured via immunofluorescence imaging [% of control] (SARS-CoV-2): 91.35 % of control |
| CN(C)CCC(Sc1cccc2ccccc12)c1cccs1 (stereo not shown) [VUFB 18271] | greater than maximum tested dose | 114.60 % of control | 117.62 | 930 | 105.83 % of control | – |
| CC(C)CC(NC(=O)OCc1ccccc1)C(=O)NC(C(=O)NCC(=O)C=[N+]=[N-])C(C)C (stereo not drawn) [Z LVG CHN2] (Cbz-Leu-Val-Gly-CHN2; configuration not given here) | greater than maximum tested dose | 105.09 % of control | 182.31 | – | 97.82 % of control | IC50 (HCoV-229E; read-out: IC50): 70 nM |
| C1=C(c2ccc(CN3CCCCC3)cc2)N2CCN=C2c2ccccc21 [SDZ-62-434] | greater than maximum tested dose | 96.11 % of control | 157.85 | 760 | 104.96 % of control | – |
| C=CCc1c(OCCCNCc2ccccc2)ccc2c1[nH]c1ccccc12 [YM-75440] | greater than maximum tested dose | 109.36 % of control | 65.35 | 730 | 100.37 % of control | – |
| CN1C2CCC1CC(OC(c1ccccc1)c1ccc(Cl)cc1)C2.Cl (stereo not shown) | greater than maximum tested dose | 110.06 % of control | 144.12 | – | 110.96 % of control | IC50 (HCoV-229E; read-out: IC50): 690 nM |
| Cc1c(-c2ccccc2)oc2ccc(OCCCCCCN3CCC(O)CC3)cc2c1=O [NPC 16377] | greater than maximum tested dose | 119.40 % of control | 107.69 | 1070 | 101.43 % of control | – |
| Cc1cccc(/C=N/Nc2cc(N3CCOCC3)nc(OCCc3ccccn3)n2)c1 [Target 16/Apilimod mesilate] | greater than maximum tested dose | 135.01 % of control | 124.74 | 200 | 101.93 % of control | – |
| CCNCc1cncc(-c2ccc3[nH]nc(-c4nc5c(F)cc(F)cc5[nH]4)c3c2)c1C [AG-024322] | greater than maximum tested dose | 108.94 % of control | 151.27 | 780 | 54.61 % of control | – |
| CC1(C)CC[C@]2(NC(=O)C(C)(F)F)CC[C@]3(C)[C@H](C(=O)C=C4[C@@]5(C)C=C(C#N)C(=O)C(C)(C)[C@@H]5CC[C@]43C)[C@@H]2C1 [RTA-63415 / Omaveloxolone] | – | 99.52 % of control | – | 80 | – | % cell viability at max. dose [5 µM] (Huh-7.5/F-Luc cells): 77.27%; CC50 (µM) (Huh-7.5/F-Luc cells): greater than maximum tested dose; Anti-SARS-CoV-2 screening on Calu-3 cells: viability [% of control] (SARS-CoV-2): 122.72 % of control |
| Oc1ccc2c(c1)CC[C@H](c1ccccc1)[C@H]2c1ccc(OCCN2CCCC2)cc1 [Lasofoxifene tartrate] | greater than maximum tested dose | 99.99 % of control | 142.22 | 540 | 103.26 % of control | – |
| COc1cc(/C=C/C=C/C(=O)NCCN2CCC(OC(c3ccccc3)c3ccccc3)CC2)ccc1O [TMK-777] | greater than maximum tested dose | 102.42 % of control | 150.43 | 1130 | 98.98 % of control | – |
| C=C1C[C@@H]2CC[C@@]34C[C@H]5O[C@H]6[C@@H](O3)[C@H]3O[C@H](CC[C@@H]3O[C@H]6[C@H]5O4)CC(=O)C[C@@H]3[C@@H](OC)[C@@H](C[C@H](O)CN)O[C@H]3C[C@H]3O[C@@H](CC[C@@H]1O2)C[C@@H](C)C3=C [Eribulin (mesylate)] | greater than maximum tested dose | 29.49 % of control | 97.37 | 50 | 41.43 % of control | – |
| CN(C)C(C)(C)CSc1nc2ccccc2cc1-c1ccccc1 [ICI-170809] | greater than maximum tested dose | 103.59 % of control | 138.76 | 520 | 98.23 % of control | – |
| c1ccc(CCCC(Oc2ccccc2OCc2ccccc2)C2=NCCN2)cc1 (stereo not shown) [MDL 102588] | greater than maximum tested dose | 108.93 % of control | 109.08 | 520 | 101.49 % of control | – |
| Oc1ccc(CCN2CCC(Nc3nc4ccccc4n3Cc3ccc(F)cc3)CC2)cc1 [DESMETHYLASTEMIZOLE] | greater than maximum tested dose | 109.56 % of control | 160.37 | – | 121.52 % of control | IC50 (HCoV-229E; read-out: IC50): 1070 nM |
| CCN(CC)CCCN1c2ccccc2Sc2ccc(Cl)cc21.Cl [Chlorproethazine HCl] | greater than maximum tested dose | 133.96 % of control | 142.02 | 830 | 91.47 % of control | – |
